Source: US11103588B2, “Methods and compositions relating to carnitine-derived materials” (Wayne State University, priority 2017, dated 2021)
Counter-ions that a name gives are not always drawn. Like-named read-outs stand apart in the source and are kept apart here.

Details: for Solubility in ACN / Solubility in CHCl3 / Solubility in EA: 80 mg/ml
Excerpt: It is critical to select the right solvent for the one-step reaction to obtain L-carnitineMA monomer. Acryloyl chloride has to be dissolved in a non-protic solvent to preserve its reactivity.

| Compound | Solubility in ACN (40° C.) | Solubility in ACN (80° C.) | Solubility in CHCl3 (CHCl3, 40° C.) | Solubility in CHCl3 (CHCl3, 80° C.) | Solubility in EA (40° C.) | Solubility in EA (80° C.) | Solubility in DMF (in words) (80° C.) |
| --- | --- | --- | --- | --- | --- | --- | --- |
| C[N+](C)(C)C[C@H](O)CC(=O)[O-].Cl [L-carnitine hydrochloride] | No (No: not soluble) | No (No: not soluble) | No (No: not soluble) | No (No: not soluble) | No (No: not soluble) | No (No: not soluble) | partially dissolved |
| C[N+](C)(C)C[C@H](O)CC(=O)[O-] [L-carnitine inner-salt] | No (No: not soluble) | No (No: not soluble) | No (No: not soluble) | No (No: not soluble) | No (No: not soluble) | No (No: not soluble) | totally insoluble |
